From ChEMBL document CHEMBL1201862, “PubChem BioAssay data set” (2004)
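How tested: cells in 96-well plates exposed to compound for 48 hours at five concentrations. GI50 marks 50% less growth.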 Calls of active or inactive are those of the source. Rule as the data show it: active = GI50 up to about 1.1 µM and inactive = higher.

How the values were obtained:
Assay in all cases: DTP human tumour cell line panel, 48 h
[1] = tested on: HOP-92
[2] = tested on: OVCAR-8
[3] = tested on: SF-539
[4] = tested on: HCC 2998
[5] = tested on: SN12C
[6] = tested on: COLO 205
[7] = tested on: RPMI-8226
[8] = tested on: HL-60
[9] = tested on: A549
[10] = tested on: SNB-19
[11] = tested on: K562
[12] = tested on: CCRF-CEM
[13] = tested on: IGROV-1
[14] = tested on: SR
[15] = tested on: OVCAR-5
[16] = tested on: OVCAR-3
[17] = tested on: HCT-116
[18] = tested on: UACC-257

Row | SMILES | GI50 [1] | GI50 [2] | GI50 [3] | GI50 [4] | GI50 [5] | GI50 [6] | GI50 [7] | GI50 [8] | GI50 [9] | GI50 [10] | GI50 [11] | GI50 [12] | GI50 [13] | GI50 [14] | GI50 [15] | GI50 [16] | GI50 [17] | GI50 [18]
1 | COc1cc(-c2cc(O)c3cc4c(cc3n2)OCO4)cc(OC)c1OC | 20.7 µM (inactive) | 75.9 µM (inactive) | 54.8 µM (inactive) | > 100 µM (inactive) | 70.1 µM (inactive) | > 100 µM (inactive) | > 100 µM (inactive) | > 100 µM (inactive) | > 100 µM (inactive) | 40.3 µM (inactive) | > 100 µM (inactive) | > 100 µM (inactive) | > 100 µM (inactive) | 71 µM (inactive) |  |  |  | 
2 | COc1ccc(C(c2ccc(C(C)C)cc(=O)c2O)c2ccc3cccnc3c2O)cc1 (configuration not stated) | 0.235 µM (active) | 1.08 µM (active) | 0.357 µM (active) |  | 0.415 µM (active) | 1.05 µM (active) | 1.97 µM (inactive) | 0.863 µM (active) | 0.328 µM (active) |  | 0.399 µM (active) | 0.604 µM (active) | 0.425 µM (active) | 1 µM (active) | 1.58 µM (inactive) | 1.24 µM (inactive) | 0.318 µM (active) | 
3 | O=C1c2ccccc2C(O)(C(=O)O)C1(O)CC=C(Cl)Cl (configuration not stated) | > 74.6 µM (inactive) | > 125 µM (inactive) | > 125 µM (inactive) | > 125 µM (inactive) | > 125 µM (inactive) | > 125 µM (inactive) | > 125 µM (inactive) | > 125 µM (inactive) | > 125 µM (inactive) | > 78.9 µM (inactive) | > 125 µM (inactive) | > 125 µM (inactive) | > 125 µM (inactive) |  | > 125 µM (inactive) | > 125 µM (inactive) | > 125 µM (inactive) | > 125 µM (inactive)
4 | O=C(O)C(Cc1cccs1)NC(=O)C(F)(F)F (configuration not stated) | > 100 µM (inactive) | > 100 µM (inactive) | > 100 µM (inactive) | > 100 µM (inactive) | > 100 µM (inactive) | > 100 µM (inactive) | > 100 µM (inactive) | > 100 µM (inactive) | > 100 µM (inactive) | > 100 µM (inactive) | > 100 µM (inactive) | > 100 µM (inactive) | > 100 µM (inactive) |  | > 100 µM (inactive) | > 100 µM (inactive) | > 100 µM (inactive) | > 100 µM (inactive)
5 | CCCCCC(/C=C/c1ncccc1OCCCCCC(=O)O)=N\NC1=NCCN1 | 91 µM (inactive) | > 100 µM (inactive) | 76 µM (inactive) | > 100 µM (inactive) | 94.4 µM (inactive) | 53.8 µM (inactive) | 29.4 µM (inactive) | 57.8 µM (inactive) | > 100 µM (inactive) | > 100 µM (inactive) | 60.3 µM (inactive) | 53.6 µM (inactive) | > 100 µM (inactive) | 39.4 µM (inactive) | > 100 µM (inactive) | 89.9 µM (inactive) | 43.4 µM (inactive) | 
6 | Clc1ccccc1C(n1ncc2ccccc21)n1ncc2ccccc21 | 24.3 µM (inactive) | > 100 µM (inactive) | 56.9 µM (inactive) | 31.5 µM (inactive) | 65.2 µM (inactive) |  | 18.2 µM (inactive) | 18.6 µM (inactive) |  | 57.5 µM (inactive) | 28.4 µM (inactive) | 28.5 µM (inactive) | > 10 µM (inactive) | 27 µM (inactive) | 37.7 µM (inactive) | 80.4 µM (inactive) | 25.6 µM (inactive) | 40.8 µM (inactive)
7 | CN1C2CCC1/C(=C/c1cccc3c1OCO3)C(=O)/C2=C\c1cccc2c1OCO2 | 22.8 µM (inactive) | > 100 µM (inactive) |  | > 100 µM (inactive) | > 100 µM (inactive) | > 100 µM (inactive) | > 100 µM (inactive) | > 100 µM (inactive) |  |  | > 10 µM (inactive) | 78 µM (inactive) | 30.1 µM (inactive) | > 100 µM (inactive) | > 100 µM (inactive) | 87.3 µM (inactive) | > 100 µM (inactive) | > 100 µM (inactive)
8 | COC(=O)C1=C(C)N2CCOC2CC1c1ccccc1 (configuration not stated) | 44.7 µM (inactive) | > 100 µM (inactive) | > 100 µM (inactive) | > 100 µM (inactive) |  | > 100 µM (inactive) | 40.4 µM (inactive) | 53.5 µM (inactive) | > 100 µM (inactive) | > 100 µM (inactive) | 70.5 µM (inactive) | 45.4 µM (inactive) | > 100 µM (inactive) | 78.9 µM (inactive) |  | 49.5 µM (inactive) | > 100 µM (inactive) | > 100 µM (inactive)
9 | CC(=O)Nc1ccc(C(=O)NN2C(=O)C(Cl)C2c2cccc([N+](=O)[O-])c2)cc1 (configuration not stated) | > 100 µM (inactive) | > 100 µM (inactive) | > 100 µM (inactive) | > 100 µM (inactive) |  | > 100 µM (inactive) | > 100 µM (inactive) | > 100 µM (inactive) | > 100 µM (inactive) | > 100 µM (inactive) | > 100 µM (inactive) | > 100 µM (inactive) | > 100 µM (inactive) | > 100 µM (inactive) | > 100 µM (inactive) | > 100 µM (inactive) | > 100 µM (inactive) | > 100 µM (inactive)
10 | O=C1C(=C2CCCC2)CCC1CN1CCCCC1 (configuration not stated) | 19.5 µM (inactive) | 21.5 µM (inactive) | 21 µM (inactive) | 16.3 µM (inactive) | 16.8 µM (inactive) | 25.7 µM (inactive) |  | 4.63 µM (inactive) | > 100 µM (inactive) | > 100 µM (inactive) | 16.3 µM (inactive) | 14.3 µM (inactive) | 18.4 µM (inactive) | 20.7 µM (inactive) | 19.8 µM (inactive) | 16.9 µM (inactive) | 18.6 µM (inactive) | 19.4 µM (inactive)
11 | OCCN1CCN(CCO)Cc2ccccc2OCCOc2ccccc2C1 | > 100 µM (inactive) | > 100 µM (inactive) | > 100 µM (inactive) |  | > 100 µM (inactive) | > 100 µM (inactive) | > 100 µM (inactive) |  | > 100 µM (inactive) | > 100 µM (inactive) | > 100 µM (inactive) | > 100 µM (inactive) | > 100 µM (inactive) | > 100 µM (inactive) | > 100 µM (inactive) | > 100 µM (inactive) | 51.6 µM (inactive) | > 100 µM (inactive)
12 | CC1CC(C)(O)C2C3(C)CCCC2(COC3=O)C12CCC1(CCOC1=O)O2 (configuration not stated) | > 250 µM (inactive) | > 250 µM (inactive) | > 250 µM (inactive) | > 250 µM (inactive) | > 250 µM (inactive) | > 250 µM (inactive) | > 250 µM (inactive) | > 250 µM (inactive) | > 250 µM (inactive) | > 250 µM (inactive) | > 250 µM (inactive) | > 250 µM (inactive) | > 250 µM (inactive) |  | > 250 µM (inactive) | > 250 µM (inactive) | > 250 µM (inactive) | > 250 µM (inactive)
13 | NC1C(O)C(O)C(CO)OC1n1cc(F)c(=O)[nH]c1=O (configuration not stated) | > 100 µM (inactive) |  |  | > 100 µM (inactive) | > 100 µM (inactive) | > 100 µM (inactive) | > 100 µM (inactive) | > 100 µM (inactive) | > 100 µM (inactive) | > 100 µM (inactive) |  | > 100 µM (inactive) |  | > 100 µM (inactive) | > 100 µM (inactive) |  | > 100 µM (inactive) | > 100 µM (inactive)
14 | CC1(C)N=C(N)N=C(N)N1c1ccc(CCc2ccccc2)cc1 | 22.1 µM (inactive) | 2.53 µM (inactive) | 2.78 µM (inactive) | 2.14 µM (inactive) | 0.759 µM (active) | 1.36 µM (inactive) | 17.4 µM (inactive) | 13.3 µM (inactive) | 0.46 µM (active) | 1.14 µM (inactive) | 2.23 µM (inactive) | 1.91 µM (inactive) | 0.348 µM (active) |  | 1.92 µM (inactive) | 1.79 µM (inactive) | 0.619 µM (active) | 2.96 µM (inactive)
15 | C=CC1(C)CCC2=C(CCC3C(C)(C(=O)OC)CCCC23C)C1=O (configuration not stated) |  | 29.8 µM (inactive) |  |  | 19 µM (inactive) | 19.1 µM (inactive) | 21.7 µM (inactive) | 28.7 µM (inactive) |  | 38.4 µM (inactive) | 38.8 µM (inactive) | 21.4 µM (inactive) | 18.9 µM (inactive) | 19 µM (inactive) | 16 µM (inactive) | 19.7 µM (inactive) | 17.3 µM (inactive) | 22.8 µM (inactive)
16 | OCC1OC(n2cnc3c2NC=NC[C@H]3O)C(O)C1O (some centres not stated) | > 192 µM (inactive) | > 450 µM (inactive) | > 450 µM (inactive) | > 330 µM (inactive) | 293 µM (inactive) | > 450 µM (inactive) | 201 µM (inactive) | 86.7 µM (inactive) | 396 µM (inactive) | > 450 µM (inactive) | 249 µM (inactive) | 172 µM (inactive) | > 450 µM (inactive) |  | > 450 µM (inactive) | > 450 µM (inactive) | 260 µM (inactive) | > 450 µM (inactive)
17 | CC(C)c1oc(=O)cc2c1C(O)C1OC(=O)C3(C)C(O)C4OC4C2(C)C13 (configuration not stated) [NAGILACTONE] | 0.7 µM (active) | 1.75 µM (inactive) | 0.989 µM (active) | 1.86 µM (inactive) | 1.31 µM (inactive) | 1.13 µM (inactive) | 1.1 µM (active) | 0.478 µM (active) | 2.44 µM (inactive) | 0.573 µM (active) | 1.01 µM (active) | 0.817 µM (active) | 2.75 µM (inactive) |  | 9.48 µM (inactive) | 1.41 µM (inactive) | 1.09 µM (active) | 1.83 µM (inactive)
